Results published in US20260076986A1 (priority 2022, published 2026).

Key:
[1] = tested on: neurons; conditions: cited from earlier work
[2] = molecular target: T1, amyloid beta (Homo sapiens, UniProt P05067); test: in vitro formation and breakdown of amyloid beta oligomers, aggregates and fibrils; assay type: biochemical; conditions: approximately
T1 construct: cleaved by alpha and beta secretases, producing free amyloid beta peptide
Excerpt: Scyllo-inositol is a natural sugar found in many nutrients, including coconut, carrots, grapes and citrus fruits.
Thus, our target concentration in the CSF (which we assume to be similar to the interstitial fluid in the brain) is approximately 2-5 ugm/ml.

[3] = tested on: rats; conditions: rat, in vivo, 6 months
[4] = tested on: mild and moderate AD patients; test: phase 2 study of scyllo-inositol 250 mg BID in mild and moderate AD patients over 78 weeks; assay type: in vivo, human
Excerpt: The inclusion of mild AD patients with an MMSE score of 20 and 21 was sufficient to mask the efficacy observed in mild AD patients with an MMSE from 22-26.
Scyllo-inositol is a drug that, in oral form, crosses the blood-brain barrier to achieve low mM levels in the blood. […] See McLaurin, J. et. al., J Mol. Biol. (1998): 183-194. […] The population of AD patients in the study was mild to moderate Alzheimer's disease having MMSE of 16-26. […] See Salloway, et al. Neurology 2011; 77:1253-1262.
A randomized, double blind placebo-controlled study phase 2 study explored the safety and efficacy of 250 mg BID administered to mild and moderate AD patients over 78 weeks. One of the primary endpoints used to measure changes in cognition was the Neuropsychological Test Battery (NTB) as well as measuring the levels of biomarkers in the CSF such as Amyloid beta 42 and phosphorylated Tau. The primary analysis compared 250 mg BID […] and placebo (n=82) in mild to moderate patients, and an additional pre-specified analysis was performed in the placebo and treated mild AD patients. […] Similar trends were also observed in other cognition and function tests such CSR-SoB and ADCS-ADL.

[5] = scyllo-inositol levels in CSF of AD patients; assay type: in vivo, human; conditions: 250 mg BID
[6] = tested on: hippocampal slices; conditions: infusion in rat brain, toxic amyloid beta oligomers; cited from earlier work
[7] = clinical safety review of scyllo-inositol (ELND005) studies; assay type: in vivo, human; conditions: clinical studies of up to 2.5 years
Description: In the completed studies, […] have been exposed to at least a single dose of ELND005 (161 unique healthy subjects in Phase 1 studies, 306 unique patients in Phase 2 studies). The 306 Mild and Moderate AD patients were treated with ELND005 doses of up to 2000 mg BID. In the completed Phase 2 studies, the duration of treatment was up to 2.5 years with the 250-mg BID dose. The Phase 2 AD studies provided a total of 370.2 patient-years of exposure at any dose. At the dose of 250 mg BID, there have been a total of 154.8 patient-years of exposure in AD patients.
Of the 161 healthy subjects who received ELND005 in Phase 1 studies, 87 were between the ages of 18 and 54 years (inclusive) and 74 were between ages of 55 and 81 years (inclusive). The dose range was 70 to 7000 mg in single-dose studies and 200 to 3000 mg BID in multiple-dose studies for up to 10 days. Patients with AD were treated with 250 mg BID to 2000 mg BID.

[8] = tested on: Alzheimer transgenic mouse model; conditions: cited from earlier work
[9] = nine phase 1 studies; cited from earlier work
[10] = tested on: mild and moderate AD patients; conditions: cited from earlier work
[11] = tested on: dogs
[12] = tested on: transgenic AD mice; conditions: cited from earlier work
[13] = cited from earlier work
[14] = tested on: animals; conditions: 20-40 mg/kg/day over 3 to 4 months; cited from earlier work
[15] = tested on: glutathione reductase and superoxide desmutases; conditions: periods of days to weeks; cited from earlier work
[16] = capsules or different food sources; cited from earlier work

T1 sequence (P05067 672-713 limits assumed): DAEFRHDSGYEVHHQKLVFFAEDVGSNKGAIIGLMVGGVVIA

O[C@H]1[C@H](O)[C@@H](O)[C@H](O)[C@@H](O)[C@@H]1O [scyllo-inositol]
amyloid beta binding to neurons and neurotoxicity [1]: prevent amyloid beta binding to neurons and reduced neurotoxicity | concentration sufficient to prevent formation of oligomers and break down amyloid beta aggregates and fibrils [2]: 2-5 ugms/ml | dose safe with no observed pathologies [3]: up to 2500 mg/kg/day | efficacy on cognition and function by MMSE subgroup ([4]; mild AD patients with MMSE score of 22-26): more pronounced | NTB score ([4]; mild AD patients, 250 mg BID): very strong signal in improvement | parameters measured in the NTB that showed improvement ([4]; mild AD patients, 250 mg BID): 7 of the 9 | changes in cognition ([4]; mild to moderate patient population, 250 mg BID): not statistically significant | average scyllo-inositol levels in CSF [5]: 15 µg/mL | long term potentiation [6]: restores long term potentiation | dose considered safe for long-term use [7]: 250 mg BID | reduction of amyloid beta 42 in the brain ([8]; 10 mg/kg and 30 mg/kg): 20-30% | reduction of number of plaques ([8]; 10 mg/kg and 30 mg/kg): 25-50% | cognition in Morris Water maze test ([8]; oral treatment): comparable to normal animals | blood brain barrier passage [9]: crosses the blood brain barrier | plasma levels versus dose [9]: dose proportional increase | subgroup analysis versus placebo ([10]; MMSE 23-26, 250 mg BID): did not achieve statistical significance | primary endpoints NTB and/or ADCS-ADL versus placebo ([10]; full analysis set, 250 mg BID, 78 weeks, MMSE 16-26): no statistical significance | efficacy on NTB, CDR-SoB, ADCS-ADL and ADAS-Cog ([10]; mild and moderate AD patients, overall population): failed to show efficacy | primary endpoints NTB and ADCS-ADL, preventing decline versus placebo ([10]; per-protocol sets, 250 mg BID, 78 weeks): no statistically significant different | dose safe and no pathologies ([11]; dog, in vivo, 12 months): 300 mg/kg/day | adverse events ([11]; dogs, 2000 mg/kg/day for 12 months, skin inflammation, gingivitis and pneumonia): some mild adverse events

O=c1cc(-c2ccc(O)cc2)oc2cc(O)cc(O)c12 [apigenin, 4′,5,7-trihydroxyflavone]
amyloid beta half life ([12]; Transgenic AD mice, not observed with deleted Aquaporin 4 gene): significantly reduced | efficacy dose observed in animal models ([12]; approximately): 20 to 40 mg/kg/day | increase of clearance of amyloid beta in the brain ([12]; mouse, in vivo): 30-40% | aquaporin channels on perivascular astrocytes ([12]; transgenic AD mice): increased the expression and localization | cognition ([12]; transgenic AD mice): reversed the loss in cognition to normal levels | reduction of amyloid beta 42 burden ([12]; transgenic mouse model): 20-30% | water solubility [13]: reduced water solubility | adverse events [14]: No adverse events | level of apigenin resulting in elevated glutathione reductase and superoxide desmutases [15]: 3.5-4.5 mgs per day | adverse events [16]: No signs of adverse events
